In brackets after ≈: the same amount, converted by molar mass.
Experiments:
C. tropicalis IBA 171 = assay: antifungal activity (disc-diffusion, MIC, MFC); type: cell-based; details: Candida tropicalis, IBA171; for MIC: fluconazole by Etest
Description: (§1) Direct antimicrobial activity against Gram-negative and Gram-positive bacterial strains, as well as against yeast, was examined as previously described by the disc-diffusion test, the MIC determination assay, the MBC (for bacteria), and the MFC (for yeasts) determination tests. All the above-mentioned tests were performed according to EUCAST [71, 72] and CLSI [73, 74, 75, 76, 77] recommendations. The following reference agents were used: nitrofurantoin (for Gram-negative rods), linezolid (for Gram-positive bacteria), and fluconazole (in the case of fungi). The new aromatic diboronic acids were dissolved in DMSO (Sigma, St. Louis, MO, USA). In the disc-diffusion test, the concentration of new agents was 0.4 mg per disc.

C. tropicalis ATCC 750 = assay: antifungal activity (disc-diffusion, MIC, MFC); type: cell-based; details: Candida tropicalis, ATCC750; for MIC: fluconazole by Etest
Description: as §1

C. albicans ATCC 90028 = assay: antifungal activity (disc-diffusion, MIC, MFC); type: cell-based; details: Candida albicans, ATCC90028; for MIC: fluconazole by Etest
Description: as §1

S. cerevisiae ATCC 9763 = assay: antifungal activity (disc-diffusion, MIC, MFC); type: cell-based; details: Saccharomyces cerevisiae, ATCC9763; for MIC: fluconazole by Etest
Description: as §1

[1] = system: C. guilliermondii IBA 155; assay: antifungal activity (disc-diffusion, MIC, MFC); type: cell-based, Candida guilliermondii; details: Meyerozyma guilliermondii, IBA155; for MIC: fluconazole by Etest
Description: as §1

C. krusei ATCC 6258 = assay: antifungal activity (disc-diffusion, MIC, MFC); type: cell-based, Candida krusei; details: Pichia kudriavzevii, ATCC6258; for MIC: fluconazole by Etest
Description: as §1

[2] = MTT-based viability assay; type: cell-based; details: human, MRC-5 human fibroblasts, 72 h, read-out: Viability of MRC-5 cells (% of viable cells ± SD)
Description: MRC-5 human fibroblasts (ECACC) were cultured in MEME, Minimum Essential Medium Eagle (Merck) supplemented with 10% fetal bovine serum (Merck), 2 mM l-glutamine, antibiotics (100 U/mL penicillin, 100 μg/mL streptomycin, Merck) and 1% non-essential amino acids (Merck). Cells were grown in 75 cm^2 cell culture flasks (Sarstedt) in a humidified atmosphere of CO2/air (5/95%) at 37 °C. MTT-based viability assay was conducted as described previously. Optical densities were measured at 570 nm using a BioTek microplate reader. All measurements were carried out in three replicates, and the results were expressed as a percent of viable cells versus control cells.

S. aureus ATCC 6538P = assay: direct antimicrobial activity (disc-diffusion, MIC, MBC); type: cell-based; details: Staphylococcus aureus, ATCC6538P
Description: as §1

[3] = system: S. epidermidis ATCC 12228; assay: as above; type: cell-based; details: Staphylococcus epidermidis, ATCC12228
Description: as §1

[4] = system: S. aureus ATCC 43300 MRSA; assay: as above; type: cell-based; details: Staphylococcus aureus
Description: as §1

E. faecium ATCC 6057 = assay: as above; type: cell-based; details: Enterococcus faecium, ATCC6057
Description: as §1

E. faecalis ATCC 29212 = assay: as above; type: cell-based; details: Enterococcus faecalis, ATCC29212
Description: as §1

[5] = system: C. parapsilosis ATCC 22019; assay: antifungal activity (disc-diffusion, MIC, MFC); type: cell-based, Candida parapsilosis; details: Lodderomyces parapsilosis, ATCC22019; for MIC: fluconazole by Etest
Description: as §1

[6] = system: K. pneumoniae ATCC 700603 ESBL-positive; assay: combination disc test CDT-ESBL; type: cell-based; details: Klebsiella pneumoniae, ATCC700603; ceftazidime 30 µg per disc, 6 mm disc; read-out: Diameter of inhibition zone, CAZ-30 disc without agent
[7] = system: E. coli 77 CMY-2-positive; assay: checkerboard microdilution, antibiotic plus tested agent; type: cell-based, Escherichia coli; details: Escherichia coli; read-out: MIC of ceftazidime alone
Description: (§2) To examine the ability of tested agents to inhibit various carbapenemases and AmpC-enzymes, their synergy with antibiotics against β-lactamase-producing strains was assessed by checkerboard microdilution assay, with slight modification. Checkerboards were prepared in microtiter plates, with seven two-fold dilutions of β-lactams (1–64 mg/L) in the rows and three two-fold dilutions of tested agents and PBA (4–16 mg/L) in the columns. Tested agents’ concentrations were limited to the concentrations at which the newest commercially available BLIs (vaborbactam, relebactam, and avibactam) are used in susceptibility testing. Plates were inoculated and incubated as in the MIC microdilution assay. Parallel, MICs of tested agents and PBA alone were determined by the microdilution assay. Following the incubation, antibiotic MICs in the presence of each agent’s concentration were determined. Moreover, for the first well without growth found in each checkerboard row and column along the growth/non-growth interface, the fractional inhibitory concentration index (FICI) was calculated using the formula below:FICI = [(MIC of antibiotic in combination)/(MIC of antibiotic alone)] + [(MIC of the tested agent in combination)/(MIC of tested agent alone)].
(§3) For calculations, all off-scale MICs were converted to the next-highest doubling concentration. Subsequently, both the average and the lowest FICI were interpreted. The interpretation was as follows: FICI ≤ 0.5, synergy; 0.5 < FICI ≤ 4, indifference and FICI > 4, antagonism. Primarily, examined combinations consisted of meropenem (Pol-Aura, Morag, Poland) plus tested agents against carbapenemases-producing strains and ceftazidime (Pol-Aura, Morag, Poland) plus tested agents against AmpC-producing strains. For agents that reduced meropenem MIC at least 4-fold for at least two tested strains, similar assays were performed with imipenem (Pol-Aura, Morag, Poland) and ertapenem (Pol-Aura, Morag, Poland).

[8] = system: P. aeruginosa MUW 700 cAmpC-positive; assay: as above; type: cell-based, Pseudomonas aeruginosa; details: Pseudomonas aeruginosa; read-out: MIC of ceftazidime alone
Description: as §2, §3

[9] = system: P. aeruginosa MUW 700 cAmpC-positive; assay: combination disc test CDT-AmpC; type: cell-based; details: Pseudomonas aeruginosa; ceftazidime 30 µg per disc, 6 mm disc; read-out: Diameter of inhibition zone, CAZ-30 disc without agent
[10] = system: E. coli 77 CMY-2-positive; assay: combination disc test CDT-AmpC; type: cell-based; details: Escherichia coli; ceftazidime 30 µg per disc, 6 mm disc; read-out: Diameter of inhibition zone, CAZ-30 disc without agent
[11] = system: E. coli 76 KPC-2-positive; assay: checkerboard microdilution, antibiotic plus tested agent; type: cell-based, Escherichia coli; details: Escherichia coli; read-out: MIC of imipenem alone
Description: as §2, §3

[12] = system: K. pneumoniae 81 KPC-3-positive; assay: as above; type: cell-based, Klebsiella pneumoniae; details: Klebsiella pneumoniae; read-out: MIC of imipenem alone
Description: as §2, §3

[13] = system: K. pneumoniae 83 KPC-3-positive, CTX-M-3-positive; assay: as above; type: cell-based, Klebsiella pneumoniae; details: Klebsiella pneumoniae; read-out: MIC of imipenem alone
Description: as §2, §3

[14] = system: K. pneumoniae ATCC BAA-1705 KPC-2-positive; assay: as above; type: cell-based, Klebsiella pneumoniae; details: Klebsiella pneumoniae, ATCCBAA1705; read-out: MIC of imipenem alone
Description: as §2, §3

[15] = 0.4 mg per disc, 9 mm disc (fluconazole 0.025 mg, 6 mm disc), - no zone, read-out: Diameter of inhibition zone

In the case of Cl.OB(O)c1cncc(B(O)O)c1 [6a, pyridine-3,5-diboronic acid hydrochloride], the MIC (C. tropicalis IBA 171) is reported as > 400 µg/mL, the MIC (C. tropicalis ATCC 750) is reported as > 400 µg/mL and the MIC (C. albicans ATCC 90028) is reported as > 400 µg/mL. The MIC (S. cerevisiae ATCC 9763) was > 400 µg/mL, the MIC [1] was > 400 µg/mL and the MIC (C. krusei ATCC 6258) was > 400 µg/mL. The viability at 72 h, 12.5 mg/L [2] was 138 ± 3.6%, the viability at 72 h, 25 mg/L [2] was 133.5 ± 0.7% and the viability at 72 h, 50 mg/L [2] was 127 ± 2.6%. For the same compound, the MIC (S. aureus ATCC 6538P) was 50 µg/mL, the MIC [3] was 400 µg/mL and the MIC [4] was 400 µg/mL. For the same compound, the MIC (E. faecium ATCC 6057) was 400 µg/mL, the MIC (E. faecalis ATCC 29212) was > 400 µg/mL and the MIC [5] was > 400 µg/mL.

In the case of OB(O)c1c(F)c(F)c(B(O)O)c(F)c1F [1g], the MIC (C. tropicalis IBA 171) is reported as > 400 µg/mL, the MIC (C. tropicalis ATCC 750) is reported as > 400 µg/mL and the MIC (C. albicans ATCC 90028) is reported as > 400 µg/mL. For the same compound, the MIC (S. cerevisiae ATCC 9763) was > 400 µg/mL, the MIC [1] was > 400 µg/mL and the MIC (C. krusei ATCC 6258) was 400 µg/mL (≈ 1680 µM). The viability at 72 h, 12.5 mg/L [2] was 104 ± 8.2%, the viability at 72 h, 25 mg/L [2] was 107 ± 9.2% and the viability at 72 h, 50 mg/L [2] was 98.7 ± 5.8%. For the same compound, the MIC (S. aureus ATCC 6538P) was > 400 µg/mL, the MIC [3] was > 400 µg/mL and the MIC [4] was > 400 µg/mL. The MIC (E. faecium ATCC 6057) was > 400 µg/mL, the MIC (E. faecalis ATCC 29212) was > 400 µg/mL and the MIC [5] was > 400 µg/mL.

Compound CC(C)(O/N=C(\C(=O)N[C@@H]1C(=O)N2C(C(=O)[O-])=C(C[n+]3ccccc3)CS[C@H]12)c1csc(N)n1)C(=O)O [CAZ, ceftazidime, reference compound] has a zone of inhibition at 30 µg/disc [6] of 14 mm, an MIC [7] of 64 µg/mL and an MIC [8] of 128 µg/mL. It also gave a zone of inhibition at 30 µg/disc [9] of 11 mm and a zone of inhibition at 30 µg/disc [10] of 13 mm.

For OB(O)c1ccc(B(O)O)s1 [5b], the MIC (C. tropicalis IBA 171) was > 400 µg/mL, the MIC (C. tropicalis ATCC 750) was > 400 µg/mL and the MIC (C. albicans ATCC 90028) was 400 µg/mL (≈ 2330 µM). For the same compound, the MIC (S. cerevisiae ATCC 9763) was > 400 µg/mL, the MIC [1] was > 400 µg/mL and the MIC (C. krusei ATCC 6258) was 400 µg/mL (≈ 2330 µM). The viability at 72 h, 12.5 mg/L [2] was 101 ± 7.7%, the viability at 72 h, 25 mg/L [2] was 110 ± 2.7% and the viability at 72 h, 50 mg/L [2] was 87.3 ± 13.6%. The MIC (S. aureus ATCC 6538P) was > 400 µg/mL, the MIC [3] was > 400 µg/mL and the MIC [4] was > 400 µg/mL. For the same compound, the MIC (E. faecium ATCC 6057) was > 400 µg/mL, the MIC (E. faecalis ATCC 29212) was 200 µg/mL (≈ 1160 µM) and the MIC [5] was > 400 µg/mL.

OC(Cn1cncn1)(Cn1cncn1)c1ccc(F)cc1F [Fl, fluconazole, reference compound] gave a zone of inhibition at 0.4 mg/disc (C. tropicalis IBA 171; [15]) of 39 mm, an MIC (C. tropicalis IBA 171) of 0.38 µg/mL (≈ 1.24 µM) and a zone of inhibition at 0.4 mg/disc (C. tropicalis ATCC 750; [15]) of 40 mm. It also gave an MIC (C. tropicalis ATCC 750) of 0.38 µg/mL (≈ 1.24 µM), a zone of inhibition at 0.4 mg/disc (C. albicans ATCC 90028; [15]) of 43 mm and an MIC (C. albicans ATCC 90028) of 1 µg/mL (≈ 3.27 µM). It also gave a zone of inhibition at 0.4 mg/disc (S. cerevisiae ATCC 9763; [15]) of 12 mm, an MIC (S. cerevisiae ATCC 9763) of 16 µg/mL (≈ 52.2 µM) and a zone of inhibition at 0.4 mg/disc [1, 15] of 40 mm. For the same compound, the MIC [1] was 0.75 µg/mL (≈ 2.45 µM), the zone of inhibition at 0.4 mg/disc (C. krusei ATCC 6258; [15]) was 16 mm and the MIC (C. krusei ATCC 6258) was 64 µg/mL (≈ 209 µM). The zone of inhibition at 0.4 mg/disc [5, 15] was 32 mm and the MIC [5] was 2 µg/mL (≈ 6.53 µM).

In the case of C[C@@H](O)[C@H]1C(=O)N2C(C(=O)O)=C(SCCN=CN)C[C@H]12 [IMI, imipenem, reference compound], the MIC [11] is reported as 128 µg/mL, the MIC [12] is reported as 8 µg/mL and the MIC [13] is reported as 8 µg/mL. The MIC [14] was 16 µg/mL.

For COc1cc(B(O)O)c(OC)cc1B(O)O [1l], the viability at 72 h, 12.5 mg/L [2] was 110 ± 1.6%, the viability at 72 h, 25 mg/L [2] was 114 ± 1.8% and the viability at 72 h, 50 mg/L [2] was 105 ± 7.8%.
